Assay results taken from US11559525B2, “Therapeutic drug for dyskinesia” (Sumitomo Pharma Co., Ltd., priority 2019, dated 2023).
Counter-ions that a name gives are not always drawn.

What was measured:
[1] = tested on: PD-LID rat model (6-OHDA-lesioned rats); experiment: Tandospirone metabolite 1-PP on dyskinesia-like symptoms in PD-LID rat model; type: in vivo; settings: subcutaneous 10 or 30 mg/kg
Procedure: The behavior was observed and evaluated using the same method in Example 2. 1-PP dihydrochloride (Tokyo Chemical Industry) was dissolved in saline and subcutaneously administered to rats. After 5 minutes, a levodopa containing solution was intraperitoneally administered to observe and evaluate the behavior. The results in the drawings are indicated in terms of mean value±standard error. The test results were statistically analyzed by comparison with the solvent administration group by Steel test by using the total AIMs score in 3 hours and total AIMs score in 100 to 180 minutes as parameters.

[2] = tested on: PD-LID rat model (6-OHDA-lesioned rats); experiment: Oral administration of tandospirone citrate on dyskinesia-like symptoms in PD-LID rat model; type: in vivo; settings: oral 10, 30, or 100 mg/kg as citrate concentration, levodopa 5 minutes later
Procedure: The behavior was observed and evaluated using the same method as Example 2. […] After 5 minutes, a levodopa containing solution was intraperitoneally administered, and the behavior was observed and evaluated. The results in the drawings are indicated in terms of mean value±standard error. The test results were statistically analyzed by comparison with the solvent administration group by Steel test using the total AIMs score in 3 hours and total AIMs score in 100 to 180 minutes as parameters. * indicates p<0.05, meaning that there is a significant difference. The dosage was described as a numerical value converted in terms of tandospirone free form.

[3] = Plasma tandospirone concentration measured after observation and evaluation of behavior in PD-LID rats; type: in vivo, rat; settings: continuous subcutaneous infusion 60 mg/mL citrate
Procedure: 50 μL of rat plasma sample was fractionated into a polypropylene microtube. 50 μL of methanol (50 μL of standard solution for calibration curve sample) and 200 μL of internal standard solution (Bezafibrate methanol solution: 200 nmol/L, 200 μL of methanol for blank sample) are added and stirred for about 10 seconds with a mixer. This is centrifuged (4° C., 4500 rpm, 10 min), and then the supernatant is subjected to vacuum filtration using a filter (FastRemover MF 0.2 μm). 70 μL of aqueous 10 mmol/L ammonium acetate solution is added to 70 μL of the resulting filtrate and stirred for about 10 seconds with a mixer to prepare a measurement sample.
When evaluating a tape agent, the hair on the abdominal region of rats was shaved before the evaluation date. The tape agent of formulation 2 was applied to the abdominal regions of rats on the evaluation date at 60 cm^2/kg (37 mg/kg). After 4 hours from application, a levodopa containing solution was intraperitoneally administered to observe and evaluate the behavior. Individuals with 50% or more of the tape agent coming off during the test were excluded from analysis.
After 4 hours from application, a levodopa containing solution was intraperitoneally administered to observe and evaluate the behavior. Individuals with 50% or more of the tape agent coming off during the test were excluded from analysis.
After 4 hours, a levodopa containing solution was administered to observe and evaluate the behavior.
After 4 hours, a levodopa containing solution was administered to observe and evaluate the behavior (day 0 of implanting the pump). Repeat administration of once daily levodopa containing solution was continued thereafter. The behavior was also observed and evaluated on day 13 of implanting the pump.

6-OHDA-lesioned rats = experiment: Prevention/delay of manifestation of dyskinesia by continuous subcutaneous infusion in 6-OHDA-lesioned rats; type: in vivo, rat
Procedure: The prepared solution was used after injection into an ALZET® Osmotic Pump MODEL 2ML2 (4.53 μL/hour; DURECT).
6-OHDA-lesioned rats were assigned to each administration group using the number of apomorphine hydrochloride hemihydrate induced rotations and body weight as indicators. […] The osmotic pump implanted subcutaneously was retrieved after the observation and evaluation of behavior on day 15. The behavior was also observed and evaluated on the following day (day 16 of repeated administration of levodopa).
The test results were statistically analyzed by comparison with the solvent administration group using Steel test with the total AIMs score on day 16 of repeated levodopa administration as the parameter. * indicates p<0.05 and ** indicates p<0.01, meaning that there is a significant difference compared to the solvent administration group.

[4] = tested on: PD-LID rat model (6-OHDA-lesioned rats); experiment: Oral administration of tandospirone citrate on dyskinesia-like symptoms in PD-LID rat model; type: in vivo; settings: oral 30 or 100 mg/kg
[5] = tested on: PD-LID rat model (6-OHDA-lesioned rats); experiment: ON-time prolongation action (ON score, ON time without dyskinesia) in PD-LID rat model; type: in vivo
Procedure: To make a PD-LID rat model, a mixture of levodopa methyl ester hydrochloride (6 mg/kg; Sigma-Aldrich) dissolved in saline and benserazide hydrochloride (15 mg/kg; Sigma-Aldrich) (hereinafter, also referred to as “levodopa containing solution”) was intraperitoneally administered once daily to 6-OHDA-lesioned rats. The levodopa containing solution was repeatedly administered for 3 weeks or longer to observe and evaluate the behavior. […] The sum of the scores for Limb AIMs, Axial AIMs, and Orolingual AIMs in 3 hours was used as the total dyskinesia-like symptom (AIMs) score. Individuals with a total AIMs score of less than 10 were excluded from the test as not manifesting a dyskinesia-like symptom. The behavior was observed and evaluated before the drug evaluation date. The rats were assigned to each dosing group by using the 3 hour total dyskinesia-like symptom (AIMs) score, Locomotive behavior score, and rat body weight as indicators, which were used for evaluation of drugs. For an indicator of dyskinesia behavior, the sum of the Limb AIMs, Axial AIMs, and Orolingual AIMs at each evaluation point was used as the AIMs score. For the rotational behavior (ON score), Locomotive behavior at each evaluation point was used as an indicator. The total ON score in 3 hours was used as the total ON score. For ON time without dyskinesia, the period during which the AIMs score is 0 and Locomotive behavior is 1 or greater at each evaluation point was added. Duration of action of levodopa without a dyskinesia symptom (ON time without dyskinesia) refers to the aggregate time with no dyskinesia during the antiparkinsonian action effective time, i.e., “ON-time”, and defined as the time during which the dyskinesia symptom (AIMs) score is 0 and the rotational behavior (Locomotive behavior) score is 1 or greater at each evaluation point after levodopa administration. […] After 5 minutes, a levodopa containing solution was intraperitoneally administered, and the behavior was observed and evaluated. The results in the drawings are indicated in terms of mean value±standard error. The test results were statistically analyzed by comparison with the solvent administration group using the Steel test with the total ON score in 3 hours or ON time without dyskinesia as an indicator. ** indicates p<0.01, meaning that there is a significant difference. For evaluation of a tape agent, the abdominal regions of the rats were shaved prior to the evaluation date. […] After 4 hours from application, a levodopa containing solution was intraperitoneally administered to observe and evaluate the behavior. The results in the drawings are indicated in terms of mean value±standard error. Individuals with 50% or more of the tape agent coming off during the test were excluded from analysis. The test results were statistically analyzed by comparison with the placebo tape administration group using Wilcoxon rank sum test with the total ON score in 3 hours or ON time without dyskinesia as an indicator. * indicates p<0.05 and ** indicates […], meaning that there is a significant difference compared to the solvent oral administration group or the placebo tape administration group.

[6] = tested on: PD-LID rat model (6-OHDA-lesioned rats); experiment: Long-term dyskinesia improving effect of continuous subcutaneous infusion in PD-LID rat model; type: in vivo
Procedure: Individuals with a total AIMs score of less than 15 were excluded from the test as not manifesting a dyskinesia-like symptom. The behavior was observed and evaluated before the drug evaluation date. The rats were assigned to each dosing group by using the 3 hour AIMs score, Locomotive behavior score, and rat body weight as indicators, which were used for evaluation of drugs. […] The prepared solution was used after injection into an ALZET® Osmotic Pump MODEL 2ML2 (4.53 μL/hour; DURECT) for releasing a drug solution at a stable rate for 2 weeks. […] After 4 hours, a levodopa containing solution was administered to observe and evaluate the behavior (day 0 of implanting the pump). Repeat administration of once daily levodopa containing solution was continued thereafter. The behavior was also observed and evaluated on day 13 of implanting the pump. […] The results in the drawings are indicated in terms of mean value±standard error of the total AIMs scores in 3 hours. The test results were statistically analyzed using Wilcoxon rank sum test using the total AIMs score as a parameter. ** indicates p<0.01, meaning that there is a significant difference compared to the solvent administration group.

[7] = oral 30 mg/kg and 100 mg/kg as citrate

Compound | clear dyskinesia-like symptom (mean AIMs score of 2 or greater) at 120 to 140 minutes after levodopa [1] | total AIMs score in 100 to 180 minutes vs solvent [1] | total AIMs score vs solvent ([1]; levodopa 5 minutes later) | total AIMs score vs solvent [2] | mean value of plasma tandospirone concentrations (converted in terms of free form) ([3]; day 0 of implanting the pump) [ng/mL] | mean value of plasma tandospirone concentrations (converted in terms of free form) ([3]; day 13 of implanting the pump) [ng/mL] | increase in total AIMs score associated with repeated administration of levodopa vs solvent (6-OHDA-lesioned rats; continuous subcutaneous infusion 30 mg/mL (mean 0.41 mg/kg/hour) or 60 mg/mL (mean 0.83 mg/kg/hour), days 3-15) | total AIMs score on the day after completion of administration (day 16) vs solvent (6-OHDA-lesioned rats; continuous subcutaneous infusion 30 or 60 mg/mL, pump retrieved day 15) | clear dyskinesia-like symptom (mean AIMs score of 2 or greater) at 120 to 140 minutes after levodopa administration [4] | total AIMs score in 100 to 180 minutes vs solvent [4] | ON time without dyskinesia for 180 minutes vs solvent [5, 7] | total ON score after 180 minutes of levodopa administration vs solvent [5, 7] | ON-time without dyskinesia for 180 minutes (Locomotive behavior ≥1, and AIMs score=0) ([5]; oral 100 mg/kg as citrate) | total ON score ([5]; oral 100 mg/kg as citrate) | dyskinesia-like symptoms (total AIMs score in 180 minutes) vs solvent ([6]; continuous subcutaneous infusion 60 mg/mL (mean 0.78 mg/kg/hour as citrate), day 0 of implanting the pump) | dyskinesia-like symptoms (total AIMs score in 180 minutes) vs solvent ([6]; continuous subcutaneous infusion 60 mg/mL citrate, day 13 of implanting the pump)
c1cnc(N2CCNCC2)nc1 [1-PP dihydrochloride, 1-(2-Pyrimidyl) piperazine] | clear dyskinesia-like symptom (mean AIMs score of 2 or greater) was observed | increasing trend in the total AIMs score, albeit not significant | significant change in the total AIMs score was not found |  |  |  |  |  |  |  |  |  |  |  |  | 
tandospirone citrate |  |  |  | significant change in the total AIMs score was not observed | 281 | 143 | suppressed the increase in total AIMs score | significantly lower | clear dyskinesia-like symptom (mean AIMs score of 2 or greater) was observed | significant increase | increase in ON time without dyskinesia | increase in the total ON score | significant prolongation | increase in the total ON score | Significant improvement | significant improvement
